Measured values published in patent US20230027361A1, “METTL3 MODULATORS” (priority 2019, published 2023).
Where two headings read alike, the source gives them in different places.

Assays:
[1] = molecular target: PRMT5-MEP50 (Homo sapiens, UniProt O14744); experiment: PRMT5 Assay (PRMT5 biochemical assay)
Summary of the method: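 PRMT5-MEP50 (2.5 nM final) preincubated 5 min with compound, then reacted 60 min at ambient temperature with 100 nM biotinylated N-acetyl histone H4 peptide and 250 nM 3H-SAM in 20 mM Tris-HCl pH 8.0, 1 mM DTT, 0.01% Tween. Quenched with 15 μM cold SAM; methylated peptide captured on streptavidin flashplates, scintillation counted.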

[2] = molecular target: METTL1/WDR4 (Homo sapiens, UniProt Q9UBP6); experiment: METTL1 Assay (METTL1 biochemical assay)
Summary of the method: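 Radiometric methyltransfer by METTL1/WDR4 (6.25 nM f.c., 5 min preincubation) at ambient temperature in HEPES pH 7.5, KCl, MgCl2, DTT; started with 25 nM 3′-biotinylated RNA and 60 nM 3H-SAM, run 20 min, quenched with 15 μM cold SAM. Product captured on streptavidin flashplates (2 h, 25° C), counted by scintillation.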

[3] = molecular target: METTL3/METTL14 (Homo sapiens, UniProt Q86U44); experiment: METTL3-14 Standard Enzyme Assay (METTL3 biochemical assay)
Summary of the method: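 METTL3/METTL14 at 2.5 nM, preincubated 5 min with compound in 20 mM HEPES pH 7.5, 50 mM KCl, 250 μM MgCl2, 1 mM DTT, at ambient temperature. Started with 100 nM 3′-biotinylated RNA and 100 nM ³H-SAM, quenched at 30 min with 15 μM cold SAM. Methylation read by scintillation on streptavidin flashplates.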

[4] = molecular target: T1, METTL16 (Homo sapiens, UniProt Q86W50); experiment: METTL16 Assay (METTL16 biochemical assay); conditions: read-out: METTL16 IC50
T1 sequence (Q86W50 1-562): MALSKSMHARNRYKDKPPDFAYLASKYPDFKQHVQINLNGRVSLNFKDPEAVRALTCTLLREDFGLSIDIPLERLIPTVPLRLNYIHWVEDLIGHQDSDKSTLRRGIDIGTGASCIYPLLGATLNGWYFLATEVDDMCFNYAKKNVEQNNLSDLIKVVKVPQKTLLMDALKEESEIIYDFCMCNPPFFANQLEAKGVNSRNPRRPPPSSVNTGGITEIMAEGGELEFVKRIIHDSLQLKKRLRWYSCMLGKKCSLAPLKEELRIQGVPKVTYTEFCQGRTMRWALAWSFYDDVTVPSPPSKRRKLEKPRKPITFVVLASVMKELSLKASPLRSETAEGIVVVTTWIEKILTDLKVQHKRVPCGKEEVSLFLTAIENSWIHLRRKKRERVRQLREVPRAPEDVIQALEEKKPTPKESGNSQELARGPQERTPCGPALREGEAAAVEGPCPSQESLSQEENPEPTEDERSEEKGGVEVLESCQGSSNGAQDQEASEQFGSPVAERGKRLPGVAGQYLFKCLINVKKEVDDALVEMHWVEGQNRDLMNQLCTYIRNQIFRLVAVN
Method: Assays were performed in a 25 μl-volume in 384-well V-bottom polypropylene microplates (Greiner Bio-One, cat. No. 781280) at ambient temperature. Optimized 1× assay buffer was 20 mM HEPES pH 7.5, 50 mM KCl, 1 mM DTT, 0.01% Tween, 0.01% BSG, 0.004 U/μl RNAseOUT (cat. No. 10777019, ThermoFisher Scientific, Waltham, Mass.). For compound screening METTL16 (final concentration, f.c.=100 nM) was added using a Multidrop Combi (ThermoFisher Scientific, Waltham, Mass.) and preincubated for 5 min. Reactions were started by adding 3′ biotinylated RNA ([…]-biotin) (f.c.=50 nM), 3H-SAM (f.c.=200 nM) and non-radiolabeled SAM (f.c.=800 nM) substrates. Reactions proceeded for 20 minutes and were quenched with excess non-radioactive SAM (f.c.=100 μM). The reactions were then transferred to streptavidin-coated flashplates and incubated for 2 hours at 25° C. Following two washing cycles with 0.1% Tween-20, the plates were sealed and read on a TopCount (PerkinElmer, Waltham, Mass.) plate-based scintillation counter. For determination of kinetic parameters, reaction times were optimized so that measurements were taken during the initial velocity phase of the reaction.

[5] = test system: MOLM-13 cells; experiment: MOLM-13 48 Hour Cell Proliferation Assay; assay type: cell-based; conditions: Homo sapiens
Method: MOLM-13 (DSMZ) cells were seeded at 1000 cells per well in a volume of 44 μL in a Falcon 384-well tissue culture treated clear bottom microplate in RPMI 1640 media containing 10% fetal bovine serum using a Multidrop Combi (ThermoFisher Scientific). Cells were incubated overnight at 37° C. in a humidified tissue culture incubator. The Mosquito® HTS Liquid Handler was used to make a compound/media intermediate plate by aliquoting 1 μL of compound from the initial compound dilution plate (concentrations ranging from 10.0 mM to 38.0 nM in 100% DMSO) into a V bottom 384-well screen matrix plate containing 49 μL of media containing the appropriate serum (50-fold dilution, 2% DMSO). The Apricot liquid handling system was used to transfer 6.2 μL compounds from the intermediate plate into the Falcon 384-well tissue culture plate containing 44 μL cells (10-point, 4-fold dilution spanning concentrations 25.0 μM to […], 0.25% DMSO final), and placed in a humidified tissue culture incubator at 37° C. After 48 hours, 25 μL of Cell Titer-Glo reagent (Promega) was added to each well using a Multidrop Combi. The plate was protected from light and placed on an IKA plate shaker for at 300 rpm for 10 minutes at room temperature. The plate was read on an EnVision plate reader (Perkin Elmer) using the Ultra Sensitive Luminescence protocol. Data analysis was performed by normalizing the raw luminescence units to an average of the positive control values for staurosporine (100% cell death) and the negative control values for DMSO (0% cell death). An IC50 was calculated using a 4-parameter logistic nonlinear regression model in GraphPad Prism.

[6] = test system: MOLM-13 cells; experiment: MOLM-13 96 Hour Cell Proliferation Assay; assay type: cell-based; conditions: Homo sapiens
Method: MOLM-13 (DSMZ) cells were seeded at 600 cells per well in a volume of 44 μL in a Greiner Bio-One CELLSTAR™ 384 Well Polystyrene Cell Culture clear bottom microplate in RPMI 1640 media containing 10% fetal bovine serum using a Multidrop Combi (ThermoFisher Scientific). Cells were incubated overnight at 37° C. in a humidified tissue culture incubator. To prevent evaporation or to reduce edge effect, add 50 μL or more H2O to an empty plate, cover, and place on top of the cell plates. The Mosquito® HTS Liquid Handler was used to make a compound/media intermediate plate by aliquoting 1 μL of compound from the initial compound dilution plate (concentrations ranging from 10.0 mM to 38.0 nM in 100% DMSO) into Bio-One 384-well polypropylene conical bottom microplate containing 49 μL of media containing the appropriate serum (50-fold dilution, 2% DMSO, compound concentrations ranging from 200.0 μM and […]). The Apricot liquid handling system was used to transfer 6.2 μL compounds from the intermediate plate into the seeding plate containing 44 μL cells (8-fold dilution spanning concentrations 25.0 μM to […], 0.25% DMSO final), and placed in a humidified tissue culture incubator at 37° C. After 96 hours, 25 μL of Cell Titer-Glo reagent (Promega) was added to each well using an Integra liquid handling system. The plate was protected from light using TopSeal-A (Black) film over the entire plate, added White Bottom seal film on the bottom of the entire plate for a better reading on the Envision, and placed on an IKA plate shaker for at 300 rpm for 10 minutes at room temperature. The plate was read on an EnVision plate reader (Perkin Elmer) using the Ultra Sensitive Luminescence protocol. Data analysis was performed by normalizing the raw luminescence units to an average of the positive control values for staurosporine (100% cell death) and the negative control values for DMSO (0% cell death). An IC50 was calculated using a 4-parameter logistic nonlinear regression model in GraphPad Prism.

[7] = PRMT5 biochemical assay, read-out: PRMT5 IC50
[8] = read-out: METTL1 IC50; METTL1 biochemical assay
[9] = METTL3 biochemical assay, read-out: METTL3 IC50
[10] = read-out: PRMT5 IC50, PRMT5 biochemical assay
[11] = METTL1 biochemical assay; read-out: METTL1 IC50
[12] = read-out: METTL3 IC50, METTL3 biochemical assay

Sequence of METTL3/METTL14 (Q86U44 whole entry, species assumed): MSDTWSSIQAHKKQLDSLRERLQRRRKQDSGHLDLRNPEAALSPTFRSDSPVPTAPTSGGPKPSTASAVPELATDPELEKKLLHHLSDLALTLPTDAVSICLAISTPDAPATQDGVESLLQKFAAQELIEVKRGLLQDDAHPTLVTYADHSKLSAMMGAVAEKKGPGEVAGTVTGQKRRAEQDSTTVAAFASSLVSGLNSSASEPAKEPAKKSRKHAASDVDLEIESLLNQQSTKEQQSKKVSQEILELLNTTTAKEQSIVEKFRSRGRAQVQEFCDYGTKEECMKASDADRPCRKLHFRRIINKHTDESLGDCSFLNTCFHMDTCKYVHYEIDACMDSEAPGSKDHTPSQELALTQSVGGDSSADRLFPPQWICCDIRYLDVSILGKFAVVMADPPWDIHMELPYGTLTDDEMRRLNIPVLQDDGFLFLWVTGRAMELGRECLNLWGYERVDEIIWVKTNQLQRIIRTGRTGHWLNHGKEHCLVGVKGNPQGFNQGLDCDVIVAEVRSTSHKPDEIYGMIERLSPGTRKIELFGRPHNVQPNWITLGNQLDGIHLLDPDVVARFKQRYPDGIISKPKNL
Sequence of METTL3/METTL14 (Q9HCE5 whole entry partner, species assumed): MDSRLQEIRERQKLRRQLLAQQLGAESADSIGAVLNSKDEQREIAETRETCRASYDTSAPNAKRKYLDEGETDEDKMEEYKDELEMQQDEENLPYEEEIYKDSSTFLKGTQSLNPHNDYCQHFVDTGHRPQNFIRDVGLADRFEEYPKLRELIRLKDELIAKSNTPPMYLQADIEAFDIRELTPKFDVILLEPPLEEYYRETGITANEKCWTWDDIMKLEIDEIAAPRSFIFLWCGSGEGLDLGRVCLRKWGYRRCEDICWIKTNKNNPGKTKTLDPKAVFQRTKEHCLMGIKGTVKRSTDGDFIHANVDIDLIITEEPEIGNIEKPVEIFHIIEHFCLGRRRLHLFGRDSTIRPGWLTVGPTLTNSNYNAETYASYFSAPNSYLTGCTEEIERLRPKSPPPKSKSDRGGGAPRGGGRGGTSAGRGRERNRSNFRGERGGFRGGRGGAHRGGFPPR
Sequence of PRMT5-MEP50 (O14744 whole entry): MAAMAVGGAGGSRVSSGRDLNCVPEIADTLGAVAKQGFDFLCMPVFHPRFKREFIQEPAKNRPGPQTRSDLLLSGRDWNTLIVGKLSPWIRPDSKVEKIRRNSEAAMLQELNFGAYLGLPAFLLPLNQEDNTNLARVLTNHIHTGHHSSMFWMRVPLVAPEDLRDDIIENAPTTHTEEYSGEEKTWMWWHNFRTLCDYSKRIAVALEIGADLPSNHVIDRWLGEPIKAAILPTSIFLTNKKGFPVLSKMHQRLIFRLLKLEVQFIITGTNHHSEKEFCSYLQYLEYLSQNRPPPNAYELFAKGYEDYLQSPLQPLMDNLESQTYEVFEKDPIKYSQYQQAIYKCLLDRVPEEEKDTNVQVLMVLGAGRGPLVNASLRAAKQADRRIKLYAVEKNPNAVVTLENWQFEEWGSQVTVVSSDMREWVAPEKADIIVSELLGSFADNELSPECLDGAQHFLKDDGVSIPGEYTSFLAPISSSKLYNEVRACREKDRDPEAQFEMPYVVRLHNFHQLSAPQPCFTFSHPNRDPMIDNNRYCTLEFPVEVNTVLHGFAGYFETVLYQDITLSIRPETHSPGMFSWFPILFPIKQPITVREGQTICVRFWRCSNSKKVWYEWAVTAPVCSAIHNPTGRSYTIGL
Sequence of PRMT5-MEP50 (Q9BQA1 whole entry partner): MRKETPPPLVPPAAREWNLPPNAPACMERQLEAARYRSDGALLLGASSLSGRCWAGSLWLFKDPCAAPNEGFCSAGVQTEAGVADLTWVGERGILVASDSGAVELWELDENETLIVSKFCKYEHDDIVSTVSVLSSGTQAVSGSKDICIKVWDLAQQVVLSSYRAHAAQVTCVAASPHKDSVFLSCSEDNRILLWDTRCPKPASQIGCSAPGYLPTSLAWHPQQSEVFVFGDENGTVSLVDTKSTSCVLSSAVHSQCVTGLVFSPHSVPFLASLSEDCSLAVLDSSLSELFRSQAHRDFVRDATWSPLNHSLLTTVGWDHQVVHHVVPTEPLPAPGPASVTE
Sequence of METTL1/WDR4 (Q9UBP6 whole entry, species assumed): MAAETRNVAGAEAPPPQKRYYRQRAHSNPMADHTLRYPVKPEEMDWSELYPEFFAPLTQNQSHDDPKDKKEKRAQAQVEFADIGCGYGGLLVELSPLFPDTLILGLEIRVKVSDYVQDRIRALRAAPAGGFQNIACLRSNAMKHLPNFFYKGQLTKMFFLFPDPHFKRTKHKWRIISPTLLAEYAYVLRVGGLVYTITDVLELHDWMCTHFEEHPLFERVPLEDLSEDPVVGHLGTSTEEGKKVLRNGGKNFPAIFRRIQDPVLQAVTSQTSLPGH
Sequence of METTL1/WDR4 (P57081 whole entry partner, species assumed): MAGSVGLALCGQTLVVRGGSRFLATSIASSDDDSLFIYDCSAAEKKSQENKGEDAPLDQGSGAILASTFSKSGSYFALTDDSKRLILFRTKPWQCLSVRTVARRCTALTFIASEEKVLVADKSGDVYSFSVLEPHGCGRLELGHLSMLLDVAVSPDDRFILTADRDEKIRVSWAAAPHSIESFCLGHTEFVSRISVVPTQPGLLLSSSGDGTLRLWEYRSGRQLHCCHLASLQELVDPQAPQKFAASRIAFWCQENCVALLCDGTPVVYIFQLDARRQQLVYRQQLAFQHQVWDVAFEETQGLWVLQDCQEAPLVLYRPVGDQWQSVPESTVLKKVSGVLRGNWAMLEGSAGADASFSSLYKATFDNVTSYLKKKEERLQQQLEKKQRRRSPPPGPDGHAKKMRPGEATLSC

| SMILES | IC50 [1, 7] [µM] | IC50 [2, 8] [µM] | IC50 [3, 9] [µM] | IC50 [4] [µM] | also measured |
| --- | --- | --- | --- | --- | --- |
| CCNc1ccc2ccc(OC[C@H]3O[C@@H](n4ccc5c(N)ncnc54)[C@H](O)[C@@H]3O)cc2n1 [I-67] | < 0.01 | > 1 | < 0.01 | > 1 |  |
| CNc1ccc2ccc(OC[C@H]3O[C@@H](n4cc(Br)c5c(N)nccc54)[C@@H](F)[C@@H]3O)cc2n1 [I-41] | 0.1 to 1 | > 1 | 0.1 to 1 | > 1 |  |
| CNc1ccc2ccc(OC[C@H]3C[C@@H](n4cc(C5CCCC5)c5c(N)ncnc54)C[C@@H]3O)cc2n1 [I-50] | 0.1 to 1 | > 1 | 0.01 to 0.1 | > 1 |  |
| Nc1cc(C2CC2)nc2cc(OC[C@H]3O[C@@H](n4cc(Br)c5c(N)ncnc54)[C@@H](F)[C@@H]3O)ccc12 [I-14] | 0.1 to 1 |  | 0.01 to 0.1 | > 1 |  |
| CNc1ccc2ccc(OC[C@H]3O[C@@H](n4cc(C5CCN(C)C5)c5c(N)ncnc54)[C@@H](F)[C@@H]3O)cc2n1 (stereo partly drawn) [I-17] | 0.1 to 1 |  | 0.01 to 0.1 | > 1 |  |
| CNc1ccc2ccc(OC[C@H]3O[C@@H](n4cc(-c5cccnc5)c5c(N)ncnc54)[C@@H](F)[C@@H]3O)cc2n1 [I-40] |  |  |  | > 1 | IC50 [1, 10]: 0.1 to 1 µM; IC50 [2, 11]: > 1 µM; IC50 [3, 12]: 0.01 to 0.1 µM |
| CNc1ccc2ccc(OC[C@H]3O[C@@H](n4cc(-c5ccnn5C)c5c(N)ncnc54)[C@@H](F)[C@@H]3O)cc2n1 [I-37] |  |  |  | > 1 | IC50 [1, 10]: 0.1 to 1 µM; IC50 [2, 11]: > 1 µM; IC50 [3, 12]: 0.01 to 0.1 µM |
| CNc1ccc2ccc(OC[C@H]3O[C@@H](n4cc(C5=CCN(C)CC5)c5c(N)ncnc54)[C@@H](F)[C@@H]3O)cc2n1 [I-35] | 0.1 to 1 | > 1 | 0.01 to 0.1 | > 1 |  |
| CCNc1ccc2ccc(CC[C@H]3O[C@@H](n4ccc5c(N)ncnc54)[C@H](O)[C@@H]3O)cc2n1 [I-90] | < 0.01 |  | 0.01 to 0.1 | > 1 |  |
| Nc1ccc2ccc(OC[C@H]3O[C@@H](n4cc(Br)c5c(N)ncnc54)[C@H](O)[C@@H]3O)cc2n1 [I-71] | < 0.01 | > 1 | 0.01 to 0.1 | > 1 |  |
| CCc1cc(N)c2ccc(OC[C@H]3O[C@@H](n4cc(Br)c5c(N)ncnc54)[C@@H](F)[C@@H]3O)cc2n1 [I-18] | 0.1 to 1 |  | 0.01 to 0.1 | > 1 |  |
| Nc1ccc2ccc(CC[C@H]3C[C@@H](n4cc(C5CCCC5)c5c(N)ncnc54)[C@H](O)[C@@H]3O)cc2n1 [I-60] | < 0.01 | > 1 | 0.01 to 0.1 |  | IC50 [5]: 1 to 10 µM; IC50 ([6]; MOLM-13, 96 h): < 1 µM |
| CNc1ccc2ccc(OC[C@H]3O[C@@H](n4cc(Br)c5c(N)nc(N)nc54)[C@@H](F)[C@@H]3O)cc2n1 [I-25] | 0.01 to 0.1 | > 1 | 0.1 to 1 | > 1 |  |
| Cc1cc(N)c2ccc(OC[C@H]3O[C@@H](n4cc(Br)c5c(N)ncnc54)[C@@H](F)[C@@H]3O)cc2n1 [I-27] | 0.1 to 1 |  | 0.01 to 0.1 | > 1 |  |
| CNc1ccc2ccc(OC[C@H]3O[C@@H](n4cc(-c5cnn(C)c5)c5c(N)ncnc54)[C@@H](F)[C@@H]3O)cc2n1 [I-11] |  |  |  | > 1 | IC50 [1, 10]: 0.1 to 1 µM; IC50 [3, 12]: 0.01 to 0.1 µM |
| CNc1ccc2ccc(CC[C@H]3C[C@@H](n4ccc5c(N)ncnc54)[C@H](O)[C@@H]3O)cc2n1 [I-123] | < 0.01 | > 1 | < 0.01 |  | IC50 [5]: > 10 µM; IC50 ([6]; MOLM-13, 96 h): < 1 µM |
| CN(CCO)c1ccc2ccc(OC[C@H]3O[C@@H](n4cc(-c5ccn(C)n5)c5c(N)ncnc54)[C@@H](F)[C@@H]3O)cc2n1 [I-162] |  |  |  |  | IC50 [1]: > 1 µM; IC50 [5]: 1 to 10 µM; IC50 [3]: < 0.01 µM; IC50 [6]: < 1 µM |
| CCNc1ccc2ccc(OC[C@H]3C[C@@H](n4ccc5c(N)ncnc54)[C@H](O)[C@@H]3O)cc2n1 [I-81] | < 0.01 |  | 0.01 to 0.1 | > 1 |  |
| Nc1ncnc2c1c(-n1ccc(C(F)(F)F)n1)cn2[C@@H]1O[C@H](COc2ccc3ccc(N4CCC4)nc3c2)[C@@H](O)[C@@H]1F [I-221] |  |  |  |  | IC50 [1]: > 1 µM; IC50 [5]: 1 to 10 µM; IC50 [3]: < 0.01 µM; IC50 [6]: 1 to 10 µM |
| Cc1cc(N)c2ccc(OC[C@H]3O[C@@H](n4cc(C5CCCC5)c5c(N)ncnc54)[C@H](O)[C@@H]3O)cc2n1 [I-16] | 0.01 to 0.1 |  | 0.01 to 0.1 | > 1 |  |
| Nc1ncnc2c1ccn2[C@H]1C[C@H](O)[C@@H](COc2ccc3ccc(N4CCC4)nc3c2)O1 [I-165] | > 1 |  | < 0.01 |  | IC50 [5]: > 10 µM; IC50 ([6]; MOLM-13, 96 h): 1 to 10 µM |
